From patent publication US11952388B2, “Crystal form of tri-cycle compound and application thereof” (FUJIAN AKEYLINK BIOTECHNOLOGY CO., LTD., priority 2018, dated 2024)

Assays:
HBV = HBV in vitro test: quantitative qPCR of HBV DNA in HepG2.2.15 cells; format: cell-based
Protocol: The HBV DNA content in HepG2.2.15 cells was detected by Real-time quantitative qPCR, and EC50 value of compounds was used as an indicator to evaluate inhibitory effect of compounds on HBV.
2.1 Cell Line: HepG2.2.15 Cells
3.1 HepG2.2.15 cells (4×10^4 cells/well) were bedded to a 96-well plate and cultured overnight at 37° C., 5% CO2.
3.2 On the day 2, the compound was diluted to a total of 8 concentrations, with a 3-fold gradient dilution. Different concentrations of compounds were added to the culture wells in duplicate. The final concentration of DMSO in the culture medium was 1%. 1 μM GLS4 was used as a 100% inhibition control; 1% DMSO was used as a 0% inhibition control.
3.3 On the day 5, the culture medium was replaced with fresh culture medium containing the compound.
3.4 On the day 8, the culture medium in the culture wells was collected, and DNA was extracted with the high-throughput DNA purification kit (Qiagen-51162). Refer product manual for specific steps.
3.6 15 μL of reaction mixture was added to each well of a 96-well PCR plate, and then 10 μL of sample DNA or HBV DNA standard was added to each well.
3.7 The reaction settings for PCR are: heating at 95° C. for 10 minutes; then denaturation at 95° C. for 15 seconds, and extension at 60° C. for 1 minute, a total of 40 cycles. […]

CYP2C19 = target: T1, CYP2C19 (Homo sapiens, UniProt P33261); assay: Inhibition of human liver microsomal cytochrome P450 isoenzymes; format: in vitro ADME; conditions: human liver microsomes
T1 construct: from tissue; host or cells: human liver microsomes
T1 sequence (P33261 whole entry): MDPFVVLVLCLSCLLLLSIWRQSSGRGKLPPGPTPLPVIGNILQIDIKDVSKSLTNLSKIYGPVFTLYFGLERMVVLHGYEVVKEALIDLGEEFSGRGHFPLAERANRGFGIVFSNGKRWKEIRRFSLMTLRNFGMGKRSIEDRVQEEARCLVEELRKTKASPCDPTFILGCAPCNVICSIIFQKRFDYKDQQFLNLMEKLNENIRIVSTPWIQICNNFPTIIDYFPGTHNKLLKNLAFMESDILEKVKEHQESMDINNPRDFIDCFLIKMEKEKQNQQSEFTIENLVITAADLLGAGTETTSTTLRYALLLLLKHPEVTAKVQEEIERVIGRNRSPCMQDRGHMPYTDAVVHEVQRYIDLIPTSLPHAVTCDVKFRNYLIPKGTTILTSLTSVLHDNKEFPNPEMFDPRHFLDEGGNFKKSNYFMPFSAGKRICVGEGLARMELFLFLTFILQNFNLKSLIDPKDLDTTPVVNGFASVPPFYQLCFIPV
Protocol: (§1) Objectives of experiment: To determine the inhibitory effect of the test compound on the activity of human liver microsomal cytochrome P450 isoenzymes (CYP1A2, CYP2C9, CYP2C19, CYP2D6 and CYP3A4). Experimental operation: First, the test compound (10 mM) was diluted in a gradient to prepare the working solutions (100× final concentration). The concentrations of the working solutions were 5, 1.5, 0.5, 0.15, 0.05, 0.015 and 0.005 mM. Meanwhile, the working solutions of mixture (5 in 1) of positive inhibitors of each P450 isoenzyme (CYP1A2, CYP2C9, CYP2C19, CYP2D6 and CYP3A4) and the specific substrate of the isoenzymes were also prepared; the human liver microsomes frozen in the refrigerator at −80° C. were unfrozen on ice. After the human liver microsomes were completely dissolved, they were diluted with PB to prepare a certain concentration (0.253 mg/mL) of working solution; 20 uL of the substrate mixture was added into the reaction plate (20 μl PB was added into the Blank well) as well as 158 μL of human liver microsome working solution, then the reaction plate was placed on ice and set aside; at this time, 2 μL of each concentration of test compound (N=1) and specific inhibitor (N=2) were added to the corresponding well, the group without inhibitor (test compound or positive inhibitor) was added with the corresponding organic solvent as a control sample (the test compound control sample was 1:1 DMSO:MeOH, and the positive control sample was 1:9 DMSO:MeOH); after pre-incubating in a 37° C. water bath for 10 min, the reaction plate was added with 20 μL of coenzyme factor (NADPH) solution and water bathed at 37° C. for 10 min; 400 μL of cold acetonitrile solution (internal standard was 200 ng/mL Tolbutamide and Labetalol) was added to terminate the reaction; the reaction plate was then placed on a shaker and shaken for 10 min, followed by centrifuging at 4,000 rpm for 20 min; 200 μL of supernatant was added to 100 μL of water for sample dilution; finally, the plate was sealed, shaken well, and subjected to LC/MS/MS detection.

CYP2C9 = target: T2, CYP2C9 (Homo sapiens, UniProt P11712); assay: as above; format: in vitro ADME; conditions: human liver microsomes
T2 construct: from tissue; host or cells: human liver microsomes
T2 sequence (P11712 whole entry): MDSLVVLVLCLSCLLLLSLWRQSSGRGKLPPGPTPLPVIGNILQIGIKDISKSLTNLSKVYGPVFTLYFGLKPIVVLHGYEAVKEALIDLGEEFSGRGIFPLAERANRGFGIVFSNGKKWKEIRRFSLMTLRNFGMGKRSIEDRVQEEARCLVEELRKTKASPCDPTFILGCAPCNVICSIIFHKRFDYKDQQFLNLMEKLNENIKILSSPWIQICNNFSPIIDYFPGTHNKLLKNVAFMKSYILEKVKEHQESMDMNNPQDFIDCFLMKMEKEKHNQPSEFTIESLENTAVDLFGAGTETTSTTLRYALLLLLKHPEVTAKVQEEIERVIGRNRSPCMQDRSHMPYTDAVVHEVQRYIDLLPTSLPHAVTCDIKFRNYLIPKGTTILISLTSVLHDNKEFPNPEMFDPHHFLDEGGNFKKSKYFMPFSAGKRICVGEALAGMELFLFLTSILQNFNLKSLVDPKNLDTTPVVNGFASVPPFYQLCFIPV
Protocol: as §1

CYP3A4 = target: T3, CYP3A4 (Homo sapiens, UniProt P08684); assay: as above; format: in vitro ADME; conditions: human liver microsomes
T3 construct: from tissue; host or cells: human liver microsomes
T3 sequence (P08684 whole entry): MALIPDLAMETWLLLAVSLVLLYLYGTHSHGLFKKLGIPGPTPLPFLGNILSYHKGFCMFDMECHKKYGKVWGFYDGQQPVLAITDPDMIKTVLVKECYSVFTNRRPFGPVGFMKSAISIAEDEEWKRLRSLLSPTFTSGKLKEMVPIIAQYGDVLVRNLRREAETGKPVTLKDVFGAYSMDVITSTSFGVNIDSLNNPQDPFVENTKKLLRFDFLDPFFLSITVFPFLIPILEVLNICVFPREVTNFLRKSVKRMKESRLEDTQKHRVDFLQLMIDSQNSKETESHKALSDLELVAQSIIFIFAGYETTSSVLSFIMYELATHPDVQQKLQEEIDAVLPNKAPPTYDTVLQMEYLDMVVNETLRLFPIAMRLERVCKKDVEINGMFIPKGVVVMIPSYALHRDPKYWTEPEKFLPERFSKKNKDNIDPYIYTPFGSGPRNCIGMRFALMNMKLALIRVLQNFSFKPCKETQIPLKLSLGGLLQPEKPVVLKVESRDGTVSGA
Protocol: as §1

## Cc1cc2n(c1)S(=O)(=O)c1ccc(C(=O)NCC[C@H]3COCCO3)cc1NC2=O [compound represented by formula (I)]
HBV
  inhibitory effect on HBV (conclusion in words): significant inhibitory effect
HBV; Hepatitis B virus, HBV DNA by qPCR, read-out: 50% inhibitory concentration (EC50) value of HBV
  EC50: 0.00816 µM
CYP2C19
  IC50: > 50 µM
  inhibitory effect on CYP2C19 (conclusion in words): no evident inhibitory effect
CYP2C9
  IC50: > 50 µM
  inhibitory effect on CYP2C9 (conclusion in words): no evident inhibitory effect
CYP3A4
  IC50: > 50 µM
  inhibitory effect on CYP3A4 (conclusion in words): no evident inhibitory effect
